According to ChEMBL document CHEMBL1156023, “Grassystatins A-C from marine cyanobacteria, potent cathepsin E inhibitors that reduce antigen presentation” (J Med Chem, 2009):
Square brackets hold non-standard residues; d marks the D form. Peptide text beside a SMILES is read from it. Hmp(2R,3S) = CC[C@H](C)[C@@H](O)C(=O)O; Sta = CC(C)C[C@H](N)[C@@H](O)CC(=O)O; dNMeF = CN[C@H](Cc1ccccc1)C(=O)O; NMeQ = CN[C@@H](CCC(N)=O)C(=O)O

Columns and labels:
[1] = molecular target: Disintegrin and metalloproteinase domain-containing protein 10 (Homo sapiens, UniProt O14672); test: Inhibition of ADAM10
[2] = molecular target: Disintegrin and metalloproteinase domain-containing protein 9 (Homo sapiens, UniProt Q13443); test: Inhibition of ADAM9
[3] = molecular target: Disintegrin and metalloproteinase domain-containing protein 17 (Homo sapiens, UniProt P78536)
Sequence of Disintegrin and metalloproteinase domain-containing protein 17 (P78536 whole entry, the tested form may be a part): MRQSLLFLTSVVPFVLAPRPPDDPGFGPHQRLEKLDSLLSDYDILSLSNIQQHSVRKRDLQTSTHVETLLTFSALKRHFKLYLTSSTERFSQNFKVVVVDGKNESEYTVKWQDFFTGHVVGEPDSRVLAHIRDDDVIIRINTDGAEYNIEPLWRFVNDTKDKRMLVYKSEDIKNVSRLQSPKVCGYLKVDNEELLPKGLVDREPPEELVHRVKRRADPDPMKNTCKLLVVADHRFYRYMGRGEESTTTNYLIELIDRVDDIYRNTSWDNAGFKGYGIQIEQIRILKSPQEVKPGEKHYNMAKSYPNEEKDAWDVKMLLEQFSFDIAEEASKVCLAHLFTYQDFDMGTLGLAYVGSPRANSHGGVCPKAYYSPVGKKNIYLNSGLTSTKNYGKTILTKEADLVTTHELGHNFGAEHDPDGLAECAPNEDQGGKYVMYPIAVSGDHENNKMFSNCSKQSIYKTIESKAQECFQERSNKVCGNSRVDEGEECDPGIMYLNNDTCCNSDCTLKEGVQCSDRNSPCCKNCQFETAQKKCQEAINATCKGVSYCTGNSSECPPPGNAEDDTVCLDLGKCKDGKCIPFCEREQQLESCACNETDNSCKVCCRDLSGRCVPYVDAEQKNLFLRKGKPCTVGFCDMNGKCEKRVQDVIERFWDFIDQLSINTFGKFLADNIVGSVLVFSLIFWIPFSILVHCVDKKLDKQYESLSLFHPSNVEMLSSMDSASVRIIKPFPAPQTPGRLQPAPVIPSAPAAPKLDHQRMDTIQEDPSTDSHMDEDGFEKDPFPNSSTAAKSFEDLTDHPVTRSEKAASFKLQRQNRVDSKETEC

Sequence of Disintegrin and metalloproteinase domain-containing protein 9 (Q13443 whole entry, the tested form may be a part): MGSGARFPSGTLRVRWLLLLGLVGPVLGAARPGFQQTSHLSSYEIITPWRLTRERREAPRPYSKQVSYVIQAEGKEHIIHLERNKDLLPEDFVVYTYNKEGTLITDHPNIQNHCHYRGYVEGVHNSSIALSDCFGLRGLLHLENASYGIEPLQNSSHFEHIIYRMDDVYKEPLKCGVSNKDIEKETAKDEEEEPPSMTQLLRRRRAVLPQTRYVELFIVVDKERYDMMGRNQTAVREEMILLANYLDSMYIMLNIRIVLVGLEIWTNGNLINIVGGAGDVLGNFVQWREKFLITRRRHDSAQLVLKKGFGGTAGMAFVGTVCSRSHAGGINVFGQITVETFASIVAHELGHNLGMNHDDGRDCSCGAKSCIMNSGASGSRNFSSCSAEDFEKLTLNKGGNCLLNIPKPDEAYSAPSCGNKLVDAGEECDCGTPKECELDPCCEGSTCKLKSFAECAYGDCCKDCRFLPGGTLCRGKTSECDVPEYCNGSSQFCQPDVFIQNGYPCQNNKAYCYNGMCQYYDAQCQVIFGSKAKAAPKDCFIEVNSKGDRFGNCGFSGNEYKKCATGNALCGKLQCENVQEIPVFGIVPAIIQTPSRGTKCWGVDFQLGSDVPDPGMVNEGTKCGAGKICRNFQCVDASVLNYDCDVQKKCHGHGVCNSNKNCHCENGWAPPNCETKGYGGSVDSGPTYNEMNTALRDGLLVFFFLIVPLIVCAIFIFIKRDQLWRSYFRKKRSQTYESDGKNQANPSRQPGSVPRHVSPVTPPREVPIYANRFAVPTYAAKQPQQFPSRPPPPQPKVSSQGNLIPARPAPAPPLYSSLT
Sequence of Disintegrin and metalloproteinase domain-containing protein 10 (O14672 whole entry, the tested form may be a part): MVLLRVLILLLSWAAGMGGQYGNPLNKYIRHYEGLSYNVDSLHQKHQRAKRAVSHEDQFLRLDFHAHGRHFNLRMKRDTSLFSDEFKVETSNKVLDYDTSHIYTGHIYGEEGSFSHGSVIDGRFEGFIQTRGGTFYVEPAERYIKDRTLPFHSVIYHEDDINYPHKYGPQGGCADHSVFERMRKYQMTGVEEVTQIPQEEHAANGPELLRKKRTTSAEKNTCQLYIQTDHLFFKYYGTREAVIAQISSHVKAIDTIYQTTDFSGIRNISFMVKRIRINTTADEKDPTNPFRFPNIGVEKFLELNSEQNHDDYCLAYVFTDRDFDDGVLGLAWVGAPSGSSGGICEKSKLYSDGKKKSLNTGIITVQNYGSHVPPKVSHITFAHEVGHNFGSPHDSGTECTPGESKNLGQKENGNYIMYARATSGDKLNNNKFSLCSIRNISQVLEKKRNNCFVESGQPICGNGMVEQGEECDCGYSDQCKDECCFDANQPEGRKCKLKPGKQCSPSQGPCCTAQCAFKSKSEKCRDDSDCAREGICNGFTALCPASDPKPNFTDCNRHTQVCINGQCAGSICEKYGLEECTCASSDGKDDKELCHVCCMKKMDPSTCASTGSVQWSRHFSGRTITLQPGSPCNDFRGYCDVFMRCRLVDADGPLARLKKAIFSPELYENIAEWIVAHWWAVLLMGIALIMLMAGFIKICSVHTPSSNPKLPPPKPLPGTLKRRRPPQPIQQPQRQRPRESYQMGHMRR

SMILES | IC50 [1] [nM] | IC50 [2] [nM] | IC50 [3] [nM]
CC[C@H](C)[C@H](NC(=O)C[C@H](O)[C@H](CC(C)C)NC(=O)[C@H](CCC(N)=O)N(C)C(=O)[C@H](CC(C)C)NC(=O)[C@H](O)[C@@H](C)CC)C(=O)NCC(=O)N(C)[C@H](Cc1ccccc1)C(=O)N1CCC[C@H]1C(=O)OC [GRASSYSTATIN C] ({Hmp(2R,3S)}-L[NMeQ][Sta]IG[dNMeF]P-OMe) | > 100000 | > 100000 | 
CNC(=O)[C@H](Cc1c[nH]c2ccccc12)NC(=O)[C@@H](CC(=O)NO)CC(C)C [ILOMASTAT] | 263 | 56.3 | 13.1
